In brackets after ≈: the same amount, converted by molar mass. Read-outs that look alike come from different tables or passages of the source. Bridge positions count the residues as written; N and C are the ends. Square brackets hold non-standard residues; d marks the D form. Ends that are not written are not given here. Peptide text beside a SMILES is read from it.
Legend:
[1] = test system: Pseudomonas aeruginosa #2
[2] = test system: pseudo-EBOV (VSV-eGP); type: cell-based, Ebola virus
[3] = test system: all the tested antibiotic-resistant pathogens (e.g., MRSA, Escherichia coli, Pseudomonas aeruginosa, and Klebsiella pneumoniae)
[4] = test system: Staphylococcus epidermidis 1457
[5] = test system: pseudo-EBOV (VSV-eGP)
[6] = test system: S. aureus USA300
[7] = test system: SARS-CoV-2 WI; conditions: 2 h
[8] = test system: Klebsiella pneumoniae E406-17
[9] = test system: Acinetobacter baumannii B28-16
[10] = test system: Vero cells (ATCC, CCL-81)
[11] = test system: Escherichia coli E416-7
[12] = test system: Calu-3 (ATCC, HTB-55) cells; conditions: 48 h
[13] = test system: human red blood cells; conditions: red cells of human
[14] = test system: HaCaT cells (human keratinocytes)
[15] = test system: BALB/c mouse red blood cells

Compound	Minimum inhibitory concentration, Pseudomonas aeruginosa #2 [1] [µM]	inhibition of VSV-eGP, treated immediately after infection [2]	Minimum inhibitory concentration, Staphylococcus epidermidis 1457 [4] [µM]	Minimum inhibitory concentration, S. aureus USA300 [6] [µM]	inhibition of SARS-CoV-2 ([7]; 5 µM) [%]	inhibition of SARS-CoV-2 ([7]; 10 µM)	Minimum inhibitory concentration, Klebsiella pneumoniae E406-17 [8] [µM]	Minimum inhibitory concentration, Acinetobacter baumannii B28-16 [9] [µM]	Minimum inhibitory concentration, Escherichia coli E416-7 [11] [µM]	hRBC HC50 (50% hemolytic concentration) [13]	further results
CC(C)C[C@@H](NC(=O)CN)C(=O)N[C@H](CCCNC(=N)N)C(=O)N[C@@H]1CSSC[C@H](C(=O)N[C@H](CC(C)C)C(=O)N[C@H](CC(C)C)C(=O)N[C@H](CCCNC(=N)N)C(=O)O)NC(=O)[C@@H](CCCNC(=N)N)NC(=O)CNC(=O)[C@@H](CC(C)C)NC(=O)[C@@H](CCCNC(=N)N)NC(=O)[C@@H](CCCNC(=N)N)NC(=O)[C@@H](CC(C)C)NC(=O)[C@@H](CC(C)C)NC(=O)[C@@H](CCCNC(=N)N)NC(=O)CNC(=O)[C@@H](CC(C)C)NC(=O)[C@@H](CCCNC(=N)N)NC1=O [DDIP1] (H-G[dL][dR][dC][dR][dL]G[dR][dL][dL][dR][dR][dL]G[dR][dC][dL][dL][dR]-OH; disulfide 4-16; N-terminus assumed)	4 (≈ 9.12 µg/mL)	~ 15%	4 to 8	4 (≈ 9.12 µg/mL)	42	~ 55%	4 (≈ 9.12 µg/mL)	2 to 4	2 (≈ 4.56 µg/mL)	–	MIC values against all the tested antibiotic-resistant pathogens [3]: 2 to 8 µM; inhibition against the virus (VSV-eGP) ([5]; 2 h, 2.5 µM): 7%; inhibition against the virus (VSV-eGP) ([5]; 2 h, 5 µM): 14%; Vero Cell TC50 [10]: 13.0 µM
CC[C@H](C)[C@H](NC(=O)[C@H](CCCCN)NC(=O)[C@H](CCC(=O)O)NC(=O)[C@H](CCCCN)NC(=O)[C@H](CO)NC(=O)[C@H](CCCCN)NC(=O)[C@H](CCCNC(=N)N)NC(=O)[C@H](Cc1ccccc1)NC(=O)[C@H](Cc1ccccc1)NC(=O)[C@H](CC(=O)O)NC(=O)CNC(=O)[C@H](CC(C)C)NC(=O)[C@@H](N)CC(C)C)C(=O)NCC(=O)N[C@@H](CCCCN)C(=O)N[C@@H](CCC(=O)O)C(=O)N[C@@H](Cc1ccccc1)C(=O)N[C@@H](CCCCN)C(=O)N[C@@H](CCCNC(=N)N)C(=O)N[C@H](C(=O)N[C@H](C(=O)N[C@@H](CCC(N)=O)C(=O)N[C@@H](CCCNC(=N)N)C(=O)N[C@H](C(=O)N[C@@H](CCCCN)C(=O)N[C@@H](CC(=O)O)C(=O)N[C@@H](Cc1ccccc1)C(=O)N[C@@H](CC(C)C)C(=O)N[C@@H](CCCNC(=N)N)C(=O)N[C@@H](CC(N)=O)C(=O)N[C@@H](CC(C)C)C(=O)N[C@H](C(=O)N1CCC[C@H]1C(=O)N[C@@H](CCCNC(=N)N)C(=O)N[C@H](C(=O)N[C@@H](CCC(=O)O)C(=O)N[C@@H](CO)C(=O)O)[C@@H](C)O)C(C)C)[C@@H](C)CC)C(C)C)[C@@H](C)CC [LL-37, reference compound]	–	9%	–	–	18	~ 27%	–	–	–	–	inhibition of VSV-eGP (in words) [5]: higher viral inhibition than DDIP1; Calu3 Cell TC50 [12]: 19.1 µM
RWLRGLLSGLLR-NH2 [DFTavP3]	4 to 8	–	8	4	–	–	8	4	2 to 4	50 µM	–
RWLRGLLSGLLRRLLS-NH2 [DFTavP2]	8	–	2	4	–	–	4	2	4	below 12.5 µM	decrease in the viral inhibition compared to DFTavP1 ([5]; 2 h, 5 µM): 33%
RWLRGLLSGLLRRLLSGLLL-NH2 [DFTavP1]	32	–	8 to 16	8 to 16	–	–	16 to 32	8	16	–	higher inhibition than LL-37 ([5]; 2 h, 2.5 µM): 18%; HaCaT TC50 (peptide concentration that killed 50% of human keratinocytes) [14]: 25 µM; hemolysis of murine red blood cells (in words) [15]: highly hemolytic; mRBC HC50 ([15]; red cells of mouse): <10 µM
RWVRGVVSGVVRRVVS-NH2 [DFTavP4]	–	–	–	>64	–	–	–	–	16	–	–

From PMC9143221 (Pharmaceuticals, 2022)
